Each structure is given as a SMILES string. Where two headings read alike, the source gives them in different places.

The results in this text go back to patent US20250084067A1, “PYRAZOLE-SUBSTITUTED CYCLOPENTANOL ESTER DERIVATIVE AND USE THEREOF” (CHIA TAI TIANQING PHARMACEUTICAL GROUP CO., LTD., priority 2022, published 2025).

The target in one assay is CDK2/CycA2 kinase (Homo sapiens (Human), UniProt P24941). The experiment in a line: Determination of inhibitory activity against CDK2/CycA2 kinase. The class given is biochemical. The procedure: The wells were set in duplicate, and a control well was set. […] The resulting mixture was left to react at room temperature for 2 h, and then 5 µL of EDTA was added to terminate the reaction, followed by addition of 5 μL of a detection antibody (manufacturer: PerkinElmer, concentration: 8 nM). The mixture was incubated at room temperature for 1 h.

The next assay has as its target CDK2 CycE1 kinase (Homo sapiens (Human), UniProt P24941). Put plainly: Determination of inhibitory activity against CDK2 CycE1 kinase. The class given is biochemical. How it is done:
CDK2 CycE1 kinase solution (concentration: 0.015 ng/μL) was added to assay wells at 6 μL/well, and different compounds dissolved in DMSO were added to the assay wells separately using a nanoliter pipettor, such that the final concentrations of the compounds were 300 nM to 0.07 nM. The wells were set in duplicate, and a control well was set. After incubation of the above system for 30 min, ATP (concentration: 50 μM or 5000 μM) was mixed with ULight-Myelin Basic Protein Peptide substrate (manufacturer: PerkinElmer, concentration: […]) at a ratio of 1:1, and the mixture was added to the assay wells at 4 μL/well. The resulting mixture was left to react at room temperature for 2 h, and then 5 μL of EDTA was added to terminate the reaction, followed by addition of 5 μL of a detection antibody (manufacturer: PerkinElmer, concentration: 8 nM). The mixture was incubated at room temperature for 1 h.

Setting [1] is: read-out: CDK2/CycA2 10 μM ATP (kinase) IC50.
[2] abbreviates: read-out: CDK2/CycE1 10 μM ATP (kinase) IC50.

Turning to `CC(C)NC(=O)O[C@@H]1CC[C@H](c2cc(Nc3ccc(NS(C)(=O)=O)c(OC(F)(F)F)n3)n[nH]2)C1` [Example 29], the IC50 against CDK2/CycA2 kinase (10 μM ATP) and at CDK2 CycE1 kinase (10 μM ATP) was less than 10 nM throughout.
On to `[2H]C([2H])([2H])C([2H])(NC(=O)O[C@@H]1CC[C@H](c2cc(Nc3ccc(S(N)(=O)=O)c(Cl)n3)n[nH]2)C1)C([2H])([2H])[2H]` [Example 77], for which the IC50 against CDK2/CycA2 kinase (10 μM ATP) and against CDK2 CycE1 kinase (10 μM ATP) was less than 10 nM in each case.
For `CC(C)NC(=O)O[C@H]1CC[C@@H](c2cc(Nc3ccc(NS(C)(=O)=O)c(C(F)(F)F)c3)n[nH]2)C1` [Example 50], the IC50 at CDK2/CycA2 kinase (10 μM ATP) and at CDK2 CycE1 kinase (10 μM ATP) was less than 10 nM throughout.
For `CC(C)NC(=O)O[C@@H]1CC[C@H](c2cc(Nc3ccc(P(C)(C)=O)cc3)n[nH]2)C1` [Example 41], the IC50 at CDK2/CycA2 kinase (10 μM ATP) and against CDK2 CycE1 kinase (10 μM ATP) was 10 to 50 nM throughout.
`CC(C)NC(=O)O[C@@H]1CC[C@H](c2cc(Nc3ccc(NS(C)(=O)=O)c(OC(F)F)c3)n[nH]2)C1` [Example 71]: the IC50 on CDK2/CycA2 kinase (setting [1]) and on CDK2 CycE1 kinase (setting [2]) was less than 10 nM throughout.
As to `CC(C)NC(=O)O[C@@H]1CC[C@H](c2cc(Nc3ccc(CN(C)C)cc3F)n[nH]2)C1` [Example 10], the IC50 on CDK2/CycA2 kinase (10 μM ATP) is 10 to 50 nM; at CDK2 CycE1 kinase (10 μM ATP), less than 10 nM.
Regarding `CC(C)NC(=O)O[C@@H]1CC[C@H](c2cc(Nc3ccc4c(c3)CS(=O)(=O)N4)n[nH]2)C1` [Example 43], the IC50 at CDK2/CycA2 kinase (setting [1]) and at CDK2 CycE1 kinase (setting [2]) was less than 10 nM throughout.
As for `CC(C)NC(=O)O[C@@H]1CC[C@H](c2cc(Nc3ccc(NS(C)(=O)=O)cc3F)n[nH]2)C1` [Example 3], the IC50 at CDK2/CycA2 kinase (10 μM ATP) and against CDK2 CycE1 kinase (10 μM ATP) was less than 10 nM throughout.
For `[2H]C([2H])([2H])C([2H])(NC(=O)O[C@@H]1CC[C@H](c2cc(Nc3ccc4c(c3)CS(=O)(=O)C4)n[nH]2)C1)C([2H])([2H])[2H]` [Example 78], the IC50 against CDK2/CycA2 kinase (10 μM ATP) and on CDK2 CycE1 kinase (10 μM ATP) was less than 10 nM in each case.
With `CC(C)NC(=O)O[C@@H]1CC[C@H](c2cc(Nc3ccc(NS(C)(=O)=O)c(OC(F)(F)F)c3)n[nH]2)C1` [Example 47], the IC50 at CDK2/CycA2 kinase (10 μM ATP) and at CDK2 CycE1 kinase (10 μM ATP) was less than 10 nM in each case.
For the molecule `CC(C)NC(=O)O[C@@H]1CC[C@H](c2cc(Nc3ccc(N4CCCC4=O)c(Cl)n3)[nH]n2)C1` [Example 57], the IC50 on CDK2/CycA2 kinase (setting [1]) and at CDK2 CycE1 kinase (setting [2]) was less than 10 nM each time.
Regarding `CNS(=O)(=O)c1ccc(Nc2cc(C3CCC(OC(=O)NC(C)C)C3)[nH]n2)c(F)c1` (centres unmarked) [Example 16], the IC50 on CDK2/CycA2 kinase (10 μM ATP) and at CDK2 CycE1 kinase (10 μM ATP) was less than 10 nM in each case.
`C[C@H](NC(=O)O[C@@H]1CC[C@H](c2cc(Nc3ccc4c(c3)CS(=O)(=O)C4)n[nH]2)C1)C(F)(F)F` [Example 63]: the IC50 on CDK2/CycA2 kinase (setting [1]) and on CDK2 CycE1 kinase (setting [2]) was less than 10 nM in each case.
`CC(C)NC(=O)O[C@@H]1CC[C@H](c2cc(Nc3ccc4c(c3)CC(=O)N4)n[nH]2)C1` [Example 42]: the IC50 against CDK2/CycA2 kinase (10 μM ATP) and at CDK2 CycE1 kinase (10 μM ATP) was less than 10 nM throughout.
As to `CC(C)NC(=O)O[C@@H]1CC[C@H](c2cc(Nc3ccc(NS(=O)(=O)C4CC4)cn3)n[nH]2)C1` [Example 8], the IC50 at CDK2/CycA2 kinase (10 μM ATP) and against CDK2 CycE1 kinase (10 μM ATP) was less than 10 nM each time.
On to `COc1nc(Nc2cc([C@H]3CC[C@@H](OC(=O)NC(C)C)C3)[nH]n2)ccc1NS(C)(=O)=O` [Example 45], for which the IC50 against CDK2/CycA2 kinase (10 μM ATP) and on CDK2 CycE1 kinase (10 μM ATP) was less than 10 nM throughout.
For `CC(C)NC(=O)O[C@@H]1CC[C@H](c2cc(Nc3ccc(S(C)(=O)=O)cc3)n[nH]2)C1` [Example 54], the IC50 against CDK2/CycA2 kinase (10 μM ATP) and against CDK2 CycE1 kinase (10 μM ATP) was less than 10 nM each time.
`CC(C)NC(=O)O[C@@H]1CC[C@H](c2cc(Nc3ccc(NS(C)(=O)=O)c(C(F)(F)F)c3)n[nH]2)C1` [Example 27]: the IC50 against CDK2/CycA2 kinase (10 μM ATP) and at CDK2 CycE1 kinase (10 μM ATP) was less than 10 nM in each case.
As for `CC(C)NC(=O)O[C@@H]1CC[C@H](c2cc(Nc3ccc(N4CCCC4=O)cn3)n[nH]2)C1` [Example 14], the IC50 against CDK2/CycA2 kinase (10 μM ATP) and against CDK2 CycE1 kinase (10 μM ATP) was less than 10 nM each time.
In the case of `CC(C)NC(=O)O[C@@H]1CC[C@H](c2cc(Nc3cc(F)c(NS(C)(=O)=O)cc3F)n[nH]2)C1` [Example 32], the IC50 at CDK2/CycA2 kinase (10 μM ATP) and on CDK2 CycE1 kinase (10 μM ATP) was less than 10 nM each time.
With `CC(C)NC(=O)O[C@@H]1CC[C@H](c2cc(Nc3ccc(S(C)(=N)=O)cc3)n[nH]2)C1` (some centres unmarked) [Example 61], the IC50 against CDK2/CycA2 kinase (10 μM ATP) and against CDK2 CycE1 kinase (10 μM ATP) was less than 10 nM throughout.
On to `CC(C)NC(=O)O[C@@H]1CC[C@H](c2cc(Nc3ccc(NS(C)(=O)=O)c(Cl)n3)n[nH]2)C1` [Example 30], for which the IC50 against CDK2/CycA2 kinase (10 μM ATP) and against CDK2 CycE1 kinase (10 μM ATP) was less than 10 nM in each case.
